The test system of series [1] is Escherichia coli. In kind it is cell-based.
Series [2] concerns Salmonella Typhimurium. In kind it is cell-based.
Series [3] deals with Clostridium perfringens. In kind it is cell-based. Conditions: strain of avian origin, 10^6 cfu/ml, 37° C. for 24 hours, anaerobiosis.
Series [4] has as its system Escherichia coli. In kind it is cell-based. The source holds these as a separate data set.
The subject of series [5] is Salmonella Typhimurium. In kind it is cell-based. The source holds these as a separate data set.
Series [6] concerns Clostridium perfringens. In kind it is cell-based. Conditions: strain of avian origin.
The test system of series [7] is Salmonella Enteritidis. In kind it is cell-based.
The subject of series [8] is Salmonella Enteritidis. In kind it is cell-based. The source holds these as a separate data set.
Series [9] can be described thus: Solubility in water. In kind it is physicochemical. Conditions: for solubility: water, at 25° C.

For the compound `CCCCCCCCCCCC(=O)Oc1cc(C)ccc1C(C)C` [IB570, Thymol Laurate], the MIC in series [1], in series [2] and in series [3] was >10% throughout. In addition, the MBC in [4], in series [5] and in [6] was >10% each time.
`Cc1ccc(C(C)C)c(O)c1` [Thymol, reference compound]: the MIC in series [1], in series [2] and in series [3] was ≤0.093% each time. Besides, the MBC in series [4], in series [5] and in series [6] was ≤0.093% each time.
Take `Cc1cc(O)c(C(C)C)cc1S(=O)(=O)O` [IB574, Thymol Sulfonic Acid]: the MIC is 0.75% in [1], 0.375% in series [2], 0.375% in series [3] and 0.625% in series [7]. Moreover, the MBC came out at 0.75% in [4], 0.375% in series [5], 0.375% in series [6] and 0.625% in series [8].
With `CCCCCCCCCCCC(=O)OC1CC(C)CCC1C(C)C` (stereo not shown) [IB579, Menthol Laurate], the MIC in [1], in [2] and in series [3] was >10% throughout. The MBC in series [4], in [5] and in series [6] was >10% each time.
For the compound `Cc1cc(S(=O)(=O)O)c(C(C)C)cc1O` [IB540, Carvacrol Sulfonic Acid], the MIC in [1] is 0.75%; in series [2], 0.75%; in [3], 0.375%; in [7], 0.312%. Further, the MBC in series [4] is reported as 0.75%; in series [5], 0.75%; in series [6], 0.75%; in series [8], 0.312%.
Consider `CCCCCCCCCCCC(=O)Oc1cc(C(C)C)ccc1C` [IB536, Carvacrol Laurate], for which the MIC in series [1], in series [2] and in [3] was >10% throughout. Also, the MBC in series [4], in [5] and in [6] was >10% in each case.
Turning to `Cc1ccc(C(C)C)cc1O` [Carvacrol, reference compound], the results for the MIC in series [1], in series [2] and in series [3] were ≤0.093%, 0.375% and ≤0.093%, respectively. Besides, the MBC is reported as ≤0.093% in [4], 0.375% in series [5] and ≤0.093% in [6]. Besides, in series [9] (result in words), the Solubility in water result is “INSOLUBLE”.
Turning to `Cc1cc(O)c(C(C)C)cc1S(=O)(=O)[O-].[K+]` [IB575, Thymol Sulfonate Potassium Salt], the results for the MIC in [1], in series [2] and in series [3] were 2.5%, 5% and 1.25%, respectively. Besides, the figures for the MBC in series [4], in series [5] and in series [6] were 2.5%, 5% and 2.5%, respectively. In addition, the solubility in [9] was ~190 mg/mL.
Turning to `Cc1ccc(C(C)C)c(OC(=O)CCC(=O)Oc2cc(C)ccc2C(C)C)c1` [Succinate], the MIC in series [1], in series [2] and in [3] was ≤0.093% each time. Moreover, the MBC in series [4], in series [5] and in series [6] was ≤0.093% each time.
For the compound `Cc1cc(S(=O)(=O)[O-])c(C(C)C)cc1O.[K+]` [IB546, Carvacrol Sulfonate Potassium Salt], the melting point is > 270 °C (dec.). The compound further came in with an MIC in series [1] of 5%. This compound had an MIC in series [2] of 1.25%. The compound further gave an MIC in series [3] of 0.375%. Moreover, the MIC in [7] came to 1.25%. The compound further yielded an MBC in [4] of 5%. This compound returned an MBC in series [5] of 1.25%. The compound further returned an MBC in [6] of 0.75%. For the same compound, the MBC in series [8] is on record as 1.25%. Further, in [9], the solubility is ~250 mg/mL.

In general, solubility refers to the dissolved amount per volume that the medium holds. Read a low solubility as a poorly soluble substance. By melting point is commonly meant the temperature of the solid-liquid transition.

The values are drawn from patent US20180265804A1 (priority 2015, published 2018).
